Results taken from US8563731B2, “Mesylate salt of 5-(2-{[6-(2,2-difluoro-2-phenylethoxy)hexyl]jamino}-1-hydroxyethyl)-8-hydroxyquinolin-2(1H)-one as agonist of the β2 adrenergic receptor” (Almirall, S.A., priority 2008, dated 2013).
Where a name gives a salt, the structure may show the parent alone.

Assay: Stability Test under accelerated condition (solid in amber glass vials, impurities by HPLC)
Assay type: physicochemical
Experimental: Stability of the mesylate salt of the present invention was evaluated under accelerated condition. About 5 mg of the mesylate salt of the present invention were introduced in individual 10 ml amber glass vials. These vials were stored at 40° C. during 30 days and at 80° C. during 15 and 30 days, respectively. After the forced stress conditions, samples were dissolved in 5 ml of the appropriate solvent. Impurities increase was determined using HPLC analysis and by calculating the relative areas.

- HPLC Impurities (% area) (Stability @ 40° C. 30 days): 2.4%
- HPLC Impurities (% area) (Stability @ 80° C. 15 days): 3.10%
- HPLC Impurities (% area) (Stability @ 80° C. 30 days): 3.8%
- percentage of impurities observed (all forced conditions (40° C. 30 days, 80° C. 15 and 30 days)): less than 5%
Structure (SMILES): O=c1ccc2c([C@@H](O)CNCCCCCCOCC(F)(F)c3ccccc3)ccc(O)c2[nH]1 [5-(2-{[6-(2,2-difluoro-2-phenylethoxy)hexyl]amino}-1(R)-hydroxy-ethyl)-8-hydroxyquinolin-2(1H)-one mesylate]
